Laboratory results published in publication PMC10447463, “Data-mining unveils structure–property–activity correlation of viral infectivity enhancing self-assembling peptides” (Nature Communications, 2023).
Where two headings read alike, the source gives them in different places.

How the values were obtained:
[1] = assay type: physicochemical; parameters: key to Fibril / Fibril Formation / TEM 2cat / Fibril: 1 = fibrils present; 0 non-fibrillar structures; conditions: for Fibril / Fibril Formation: TEM, 1 mg/mL, uranyl acetate stain, qualitative
[2] = assay type: physicochemical; conditions: for ThT Cat. / ThT-Fluorescence (categorical): ThT-active if fluorescence at least twice the control
Method in brief: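 Preformed peptide fibrils (1 mg/mL) mixed with 50 µM ThT in PBS, 15 min at RT, fluorescence ex 440/em 488 nm versus PBS blank, triplicates. Zeta potential: peptides at 1 mg/mL in PBS pH 7.4, aged 1 d at RT, diluted in 1 mM KCl, Smoluchowski from electrophoretic mobility.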

[3] = ThT fluorescence relative to blank, blank = 42.1851851851852
[4] = ThT fluorescence relative to blank (42.1851851851852 a.u.)
[5] = relative to blank 42.1851851851852 a.u.

Substance | TEM: 1= fibrils, 0= aggregates (micelle), 0.5 = aggregates and fibrils, -1 = nothing obersved, STD prep [1] | Tht category (> 1.5 to blank = +) ([2]; category 1/0) | Fibril / Fibril Formation [1] | ThT Cat. / ThT-Fluorescence (categorical) [2] | further results
KYKYQY [KB1] | 0 | 1 (ThT. Cat is 1, if Rel. ThT >2) | – | – | Tht rel to blank (42.1851851851852) [2, 3]: 6.106
RQGNINIVA [reference compound] | – | – | 1 | 1 (ThT. Cat is 1, if Rel. ThT >2) | –
CKIKIQIRGD [psis21] | – | – | – | – | TEM: 1= fibrils, 0= aggregates (micelle), 0.5 = aggregates and fibrils, -1 = nothing obersved, STD prep ([1]; FigS26): 1; Tht category (> 1.5 to blank = +) ([2]; FigS26): 0 (Tht category (> 1.5 to blank = +))
KIKIQINMAQ [JR2] | – | – | – | – | TEM: 1= fibrils, 0= aggregates (micelle), 0.5 = aggregates and fibrils, -1 = nothing obersved, STD prep ([1]; FigS26): 1; Tht category (> 1.5 to blank = +) ([2]; FigS26): 0 (Tht category (> 1.5 to blank = +))
RINFWFW | – | – | 0 | 1 (ThT. Cat is 1, if Rel. ThT >2) | –
EIEIQINM [TM95 / (TM75)] | 1 | – | – | – | Tht rel to blank (42.1851851851852) [2, 4]: 1.473
KIKIQII [TG1 / (KM4)] | 1 | 0 (ThT-inactive (N-Fold <2)) | – | – | Tht rel to blank (42.1851851851852) [2, 4]: 1.392; Tht rel to blank (42.1851851851852) [2, 3]: 1.392; Tht rel to blank (42.1851851851852) [2, 5]: 1.392
IFQINS [reference compound] | – | – | 1 | 1 (ThT. Cat is 1, if Rel. ThT >2) | –
CRFRFHFH | – | – | 1 | 0 (ThT-inactive (N-Fold <2)) | –
HIHIQIC [CN12] | 1 | 1 (ThT. Cat is 1, if Rel. ThT >2) | – | – | Tht rel to blank (42.1851851851852) [2, 3]: 12.46
EIEIQINMWQ [VH8] | 0.5 | – | – | – | Tht rel to blank (42.1851851851852) [2, 4]: 4.145
KFKFQFNMW [BL5 / KB13] | 1 | 0 (ThT-inactive (N-Fold <2)) | – | – | Tht rel to blank (42.1851851851852) [2, 5]: 1.342
KIWIWIW | – | – | 1 | 1 (ThT. Cat is 1, if Rel. ThT >2) | –
